According to patent US20250206730A1 (AUTOTELIC BIO INC., priority 2022, published 2025):

Tests used:
ALK5 kinase = target: T1, ALK5 kinase (Homo sapiens, UniProt P36897); test: LanthaScreen Eu Kinase Binding Assay; conditions: Kinase Tracer 178, Eu-anti-GST Antibody, read-out: IC50 Enzyme
T1 sequence (P36897 34-503): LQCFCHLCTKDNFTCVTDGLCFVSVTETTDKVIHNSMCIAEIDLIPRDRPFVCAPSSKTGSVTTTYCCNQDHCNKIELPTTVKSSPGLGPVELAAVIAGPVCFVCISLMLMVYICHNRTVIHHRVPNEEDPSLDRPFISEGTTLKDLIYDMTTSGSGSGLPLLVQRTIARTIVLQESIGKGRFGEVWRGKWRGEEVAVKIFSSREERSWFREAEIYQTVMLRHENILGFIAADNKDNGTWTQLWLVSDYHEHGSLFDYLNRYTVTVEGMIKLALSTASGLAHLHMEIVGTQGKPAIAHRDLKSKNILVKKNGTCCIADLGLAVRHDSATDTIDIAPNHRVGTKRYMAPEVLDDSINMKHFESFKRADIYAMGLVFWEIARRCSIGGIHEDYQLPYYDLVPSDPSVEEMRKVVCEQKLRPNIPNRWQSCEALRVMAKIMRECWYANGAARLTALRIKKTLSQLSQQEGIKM
Method: [Example 1] LanthaScreen Eu Kinase Binding Assay
4 μL of 4× Test Compound in 4% DMSO and 4 μL of 4× Kinase in Kinase buffer were added to wells (low volume, white 384-well plate (Greiner Cat. #784207)). The plate was shaken for 30 seconds, centrifuged for 10 seconds at 1000 rpm, and incubated at RT for 30 minutes. Then, 4 μL of 4× Eu-anti-GST Antibody and 4 μL of 4× Kinase Tracer 178 were added to the wells. The plate was shaken for 30 seconds, centrifuged for 10 seconds at 1000 rpm, and incubated at RT for 60 minutes. Fluorescence was measured by a plate reader, Biotek Synergy H1 (Vermont, USA) under the following conditions. • Excitation: 340 nm (3 nm bandpass) • Kinase tracer emission: 665 nm (10 nm bandpass) • Eu Ab emission: 615 nm (10 nm bandpass) • Emission ratio=665 nm (tracer)/615 nm (Eu Ab) • The higher the binding affinity of compound to ALK5 kinase is, the less the emission ratio is.

TGF-β signaling = test: Assay for evaluating cellular inhibition of TGF-β signaling, 4T1 (SBE-luc2P) luciferase reporter; assay type: cell-based; conditions: Mus musculus, 4T1, 4T1 (SBE-luc2P) transient pool, 0.2% FBS, 2 h pre-treatment, TGF-β1 2 ng/mL 24 h; read-out: IC50 4T1 Cell
In short: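 Luminescence from SMAD-binding-element luciferase was measured after 24 h of 2 ng/mL TGF-β1 at 37 °C, following 2 h compound pre-treatment. HEK293 stable reporter cells were used at 2.5×10^4/well in 0.5% FBS (~80% confluent); the 4T1 SBE-luc2P transient pool at 6×10^3/well in 0.2% FBS (~60% confluent).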

Row | Compound | IC50 (ALK5 kinase) [nM] | IC50 (TGF-β signaling) [nM]
1 | Cc1nc(-c2ccccc2)c(Oc2ccnc(Nc3cccc(Cc4nnn[nH]4)c3)c2)s1 [A-112, N-(3-((1H-Tetrazol-5-yl)methyl)phenyl)-4-((2-methyl-4-phenylthiazol-5-yl)oxy)pyridin-2-amine] | < 100 | < 100
2 | Cc1nc(-c2ccccc2)c(Oc2ccnc(Nc3cccc(CCC#N)c3)c2)s1 [A-113, 3-(3-((4-((2-Methyl-4-phenylthiazol-5-yl)oxy)pyridin-2-yl)amino)phenyl)propanenitrile] | < 100 | < 100
3 | Cc1nc(-c2ccccc2)c(Oc2ccnc(Nc3cccc(CCc4nn[nH]n4)c3)c2)s1 [A-114, N-(3-(2-(2H-Tetrazol-5-yl)ethyl)phenyl)-4-((2-methyl-4-phenylthiazol-5-yl)oxy)pyridin-2-amine] | < 100 | < 100
4 | CC(C)(O)c1cccc(Nc2cc(Oc3sc(C4CC4)nc3-c3ccccc3)ccn2)c1 [A-115, 2-(3-((4-((2-Cyclopropyl-4-phenylthiazol-5-yl)oxy)pyridin-2-yl)amino)phenyl)propan-2-ol] | < 100 | > 100
5 | NS(=O)(=O)c1cccc(Nc2cc(Oc3sc(C4CC4)nc3-c3ccccc3)ccn2)c1 [A-116, 3-((4-((2-Cyclopropyl-4-phenylthiazol-5-yl)oxy)pyridin-2-yl)amino)benzenesulfonamide] | < 100 | < 100
6 | NC(=O)c1cccc(Nc2cc(Oc3sc(C4CC4)nc3-c3ccccc3)ccn2)c1 [A-117, 3-((4-((2-Cyclopropyl-4-phenylthiazol-5-yl)oxy)pyridin-2-yl)amino)benzamide] | < 100 | < 100
7 | NS(=O)(=O)c1ccc(Nc2cc(Oc3sc(C4CC4)nc3-c3ccccc3)ccn2)cc1 [A-118, 4-((4-((2-Cyclopropyl-4-phenylthiazol-5-yl)oxy)pyridin-2-yl)amino)benzenesulfonamide] | < 100 | > 100
8 | NC(=O)c1ccc(Nc2cc(Oc3sc(C4CC4)nc3-c3ccccc3)ccn2)cc1 [A-119, 4-((4-((2-Cyclopropyl-4-phenylthiazol-5-yl)oxy)pyridin-2-yl)amino)benzamide] | < 100 | < 100
9 | CC(C)(O)c1cc(Nc2cc(Oc3sc(C4CC4)nc3-c3ccccc3)ccn2)ccn1 [A-120, 2-(4-((4-((2-Cyclopropyl-4-phenylthiazol-5-yl)oxy)pyridin-2-yl)amino)pyridin-2-yl)propan-2-ol] | < 100 | > 100
10 | CC(C)(O)c1ccc(Nc2cc(Oc3sc(C4CC4)nc3-c3ccccc3)ccn2)cn1 [A-121, 2-(5-((4-((2-Cyclopropyl-4-phenylthiazol-5-yl)oxy)pyridin-2-yl)amino)pyridin-2-yl)propan-2-ol] | < 100 | > 100
11 | CCS(=O)(=O)Nc1cccc(Nc2cc(Oc3sc(C4CC4)nc3-c3ccccc3)ccn2)c1 [A-122, N-(3-((4-((2-Cyclopropyl-4-phenylthiazol-5-yl)oxy)pyridin-2-yl)amino)phenyl)ethanesulfonamide] | < 100 | < 100
12 | NC(=O)c1cccc(Nc2cc(Oc3sc(C4CC4)nc3-c3ccccc3)ccn2)n1 [A-124, 6-((4-((2-Cyclopropyl-4-phenylthiazol-5-yl)oxy)pyridin-2-yl)amino)picolinamide] | < 100 | < 100
13 | CNC(=O)c1cccc(Nc2cc(Oc3sc(C4CC4)nc3-c3ccccc3)ccn2)n1 [A-125, 6-((4-((2-Cyclopropyl-4-phenylthiazol-5-yl)oxy)pyridin-2-yl)amino)-N-methylpicolinamide] | < 100 | < 100
14 | CNC(=O)c1ccc(Nc2cc(Oc3sc(C4CC4)nc3-c3ccccc3)ccn2)cc1 [A-126, 4-((4-((2-Cyclopropyl-4-phenylthiazol-5-yl)oxy)pyridin-2-yl)amino)-N-methylbenzamide] | < 100 | < 100
15 | CS(=O)(=O)Nc1ccc(Nc2cc(Oc3sc(C4CC4)nc3-c3ccccc3)ccn2)nc1 [A-127, N-(6-((4-((2-Cyclopropyl-4-phenylthiazol-5-yl)oxy)pyridin-2-yl)amino)pyridin-3-yl)methanesulfonamide] | < 100 | < 100
16 | CS(=O)(=O)Nc1ccc(Nc2cc(Oc3sc(C4CC4)nc3-c3ccccc3)ccn2)cc1 [A-128, N-(4-((4-((2-Cyclopropyl-4-phenylthiazol-5-yl)oxy)pyridin-2-yl)amino)phenyl)methanesulfonamide] | < 100 | < 100
17 | NC(=O)c1ccc(Nc2cc(Oc3sc(C4CC4)nc3-c3ccccc3)ccn2)nc1 [A-129, 6-((4-((2-Cyclopropyl-4-phenylthiazol-5-yl)oxy)pyridin-2-yl)amino)nicotinamide] | < 100 | < 100
18 | O=C(O)c1ccc(Nc2cc(Oc3sc(C4CC4)nc3-c3ccccc3)ccn2)nc1 [A-132, 6-((4-((2-Cyclopropyl-4-phenylthiazol-5-yl)oxy)pyridin-2-yl)amino)nicotinic acid] | < 100 | < 100
19 | CNC(=O)c1ccc(Nc2cc(Oc3sc(C4CC4)nc3-c3ccccc3)ccn2)nc1 [A-133, 6-((4-((2-Cyclopropyl-4-phenylthiazol-5-yl)oxy)pyridin-2-yl)amino)-N-methylnicotinamide] | < 100 | < 100
20 | O=C(O)c1cccc(Nc2cc(Oc3sc(C4CC4)nc3-c3ccccc3)ccn2)n1 [A-134, 6-((4-((2-Cyclopropyl-4-phenylthiazol-5-yl)oxy)pyridin-2-yl)amino)picolinic acid] | < 100 | < 100
21 | O=C(O)c1cccc(Nc2cc(Oc3sc(C4CC4)nc3-c3ccccc3)ccn2)c1 [A-135, 3-((4-((2-Cyclopropyl-4-phenylthiazol-5-yl)oxy)pyridin-2-yl)amino)benzoic acid] | < 100 | < 100
22 | O=C(O)c1ccc(Nc2cc(Oc3sc(C4CC4)nc3-c3ccccc3)ccn2)cc1 [A-136, 4-((4-((2-Cyclopropyl-4-phenylthiazol-5-yl)oxy)pyridin-2-yl)amino)benzoic acid] | < 100 | < 100
23 | O=C(NO)c1ccc(Nc2cc(Oc3sc(C4CC4)nc3-c3ccccc3)ccn2)nc1 [A-138, 6-((4-((2-Cyclopropyl-4-phenylthiazol-5-yl)oxy)pyridin-2-yl)amino)-N-hydroxynicotinamide] | < 100 | < 100
24 | O=C(NO)c1ccc(Nc2cc(Oc3sc(C4CC4)nc3-c3ccccc3)ccn2)cc1 [A-139, 4-((4-((2-Cyclopropyl-4-phenylthiazol-5-yl)oxy)pyridin-2-yl)amino)-N-hydroxybenzamide] | < 100 | > 100
25 | CS(=O)(=O)NC(=O)c1ccc(Nc2cc(Oc3sc(C4CC4)nc3-c3ccccc3)ccn2)nc1 [A-140, 6-((4-((2-Cyclopropyl-4-phenylthiazol-5-yl)oxy)pyridin-2-yl)amino)-N-(methylsulfonyl)nicotinamide] | < 100 | > 100
26 | COc1nc(-c2ccccc2)c(Oc2ccnc(Nc3cccc(C(C)(C)O)c3)c2)s1 [A-141, 2-(3-((4-((2-Methoxy-4-phenylthiazol-5-yl)oxy)pyridin-2-yl)amino)phenyl)propan-2-ol] | < 100 | > 100
27 | COc1nc(-c2ccccc2)c(Oc2ccnc(Nc3cccc(S(N)(=O)=O)c3)c2)s1 [A-142, 3-((4-((2-Methoxy-4-phenylthiazol-5-yl)oxy)pyridin-2-yl)amino)benzenesulfonamide] | < 100 | > 100
28 | COc1nc(-c2ccccc2)c(Oc2ccnc(Nc3cccc(C(N)=O)c3)c2)s1 [A-143, 3-((4-((2-Methoxy-4-phenylthiazol-5-yl)oxy)pyridin-2-yl)amino)benzamide] | < 100 | > 100
29 | COc1nc(-c2ccccc2)c(Oc2ccnc(Nc3cccc(C(=O)O)c3)c2)s1 [A-144, 3-((4-((2-Methoxy-4-phenylthiazol-5-yl)oxy)pyridin-2-yl)amino)benzoic acid] | < 100 | > 100
30 | NS(=O)(=O)c1cccc(Nc2cc(Oc3sc(C(F)(F)F)nc3-c3ccccc3)ccn2)c1 [A-145, 3-((4-((4-Phenyl-2-(trifluoromethyl)thiazol-5-yl)oxy)pyridin-2-yl)amino)benzenesulfonamide] | < 100 | > 100
